Source: PubChem BioAssay AID248 (DTP/NCI, 2004)
Inconclusive results and toxic doses are left out. No stated cut-off is given here; in the data, active means T/C of 150% or more; inactive means T/C below 125%.

Tested on: L1210 leukemia ip in BDF1 mice, survival T/C
Assay: NCI In Vivo Anticancer Drug Screen. Data for tumor model L1210 Leukemia (intraperitoneal) in B6D2F1 (BDF1) mice
Conditions: endpoint: mean survival time, higher = longer survival
Outline: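 Ratio derived from survival: compound-dosed mice over vehicle-dosed mice, all bearing a transplantable tumor.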

[1] = dose: 100.0 mg/kg/injection, schedule: Q01DX001 (ip), vehicle: carboxymethylcellulose (CMC)
[2] = dose: 200.0 mg/kg/injection, schedule: Q01DX001 (ip), vehicle: carboxymethylcellulose (CMC)
[3] = dose: 400.0 mg/kg/injection, schedule: Q01DX001 (ip), vehicle: carboxymethylcellulose (CMC)
[4] = dose: 100.0 mg/kg/injection, schedule: Q01DX009 (ip), vehicle: saline
[5] = dose: 200.0 mg/kg/injection, schedule: Q01DX009 (ip), vehicle: saline
[6] = dose: 400.0 mg/kg/injection, schedule: Q01DX009 (ip), vehicle: saline
[7] = dose: 100.0 mg/kg/injection, schedule: Q04DX003 (ip), vehicle: saline with Tween-80
[8] = dose: 200.0 mg/kg/injection, schedule: Q04DX003 (ip), vehicle: saline with Tween-80
[9] = dose: 100.0 mg/kg/injection, schedule: Q01DX001 (ip), vehicle: saline
[10] = dose: 200.0 mg/kg/injection, schedule: Q01DX001 (ip), vehicle: saline
[11] = dose: 400.0 mg/kg/injection, schedule: Q01DX001 (ip), vehicle: saline
[12] = dose: 100.0 mg/kg/injection, schedule: Q01DX009 (ip), vehicle: saline with Tween-80
[13] = dose: 200.0 mg/kg/injection, schedule: Q01DX009 (ip), vehicle: saline with Tween-80

Measured: T/C

CN(C)C=Nc1ccc(F)cc1
inactive: dose: 50.0 mg/kg/injection, schedule: Q01DX001 (ip), vehicle: carboxymethylcellulose (CMC) 94 % of control | [1] 102 % of control | [2] 104 % of control | [3] 105 % of control

Nc1ccc(S(=O)(=O)O)c2cccc(O)c12
inactive: dose: 100.0 mg/kg/injection, schedule: Q04DX002 (ip), vehicle: carboxymethylcellulose (CMC) 103 % of control | dose: 100.0 mg/kg/injection, schedule: Q04DX003 (ip), vehicle: Klucel (hydroxypropylcellulose) (HPC) 101 % of control | dose: 200.0 mg/kg/injection, schedule: Q04DX002 (ip), vehicle: carboxymethylcellulose (CMC) 107 % of control | dose: 200.0 mg/kg/injection, schedule: Q04DX003 (ip), vehicle: Klucel (hydroxypropylcellulose) (HPC) 91 % of control | dose: 400.0 mg/kg/injection, schedule: Q04DX003 (ip), vehicle: Klucel (hydroxypropylcellulose) (HPC) 101 % of control

CC(=O)OCC(CO)(CO)CO
inactive: [4] 98 % of control | dose: 100.0 mg/kg/injection, schedule: Q04DX003 (ip), vehicle: saline 97 % of control | [5] 106 % of control | dose: 200.0 mg/kg/injection, schedule: Q04DX003 (ip), vehicle: saline 105 % of control | [6] 101 % of control | dose: 400.0 mg/kg/injection, schedule: Q04DX003 (ip), vehicle: saline 92 % of control

CC1(C)CC(=O)C(C)(CCc2ccccc2)C(=O)C1
inactive: [7] 97 % of control | [8] 98 % of control | dose: 400.0 mg/kg/injection, schedule: Q04DX003 (ip), vehicle: saline with Tween-80 95 % of control

CCCCCCC(c1ccccc1)c1ccccc1
inactive: [9] 100 % of control | [10] 97 % of control | [11] 100 % of control

CCCNC(=O)c1cccc2c1-c1ccccc1C2=O
inactive: dose: 100.0 mg/kg/injection, schedule: Q01DX001 (ip), vehicle: other 93 % of control | dose: 200.0 mg/kg/injection, schedule: Q01DX001 (ip), vehicle: other 93 % of control | dose: 400.0 mg/kg/injection, schedule: Q01DX001 (ip), vehicle: other 87 % of control

O=C(O)/C=C/C(=O)NCCC(=O)O
inactive: [4] 114 % of control | [5] 115 % of control | [6] 109 % of control

CC(=O)Nc1c(Cl)c(Cl)c2c(c1Cl)C(=O)c1cc(Cl)ccc1-2
inactive: [1] 92 % of control | dose: 100.0 mg/kg/injection, schedule: Q01DX Z (ip), vehicle: carboxymethylcellulose (CMC) 102 % of control | [2] 90 % of control | dose: 200.0 mg/kg/injection, schedule: Q01DX Z (ip), vehicle: carboxymethylcellulose (CMC) 98 % of control | [3] 95 % of control | dose: 400.0 mg/kg/injection, schedule: Q01DX Z (ip), vehicle: carboxymethylcellulose (CMC) 98 % of control | dose: 800.0 mg/kg/injection, schedule: Q01DX Z (ip), vehicle: carboxymethylcellulose (CMC) 102 % of control

CC(=O)OCCc1ccc(F)cc1
inactive: dose: 100.0 mg/kg/injection, schedule: Q04DX002 (ip), vehicle: saline 102 % of control | dose: 200.0 mg/kg/injection, schedule: Q04DX002 (ip), vehicle: saline 105 % of control | dose: 400.0 mg/kg/injection, schedule: Q04DX002 (ip), vehicle: saline 102 % of control

OCC1OC(n2cnc3c2NC=NC[C@H]3O)CC1O (stereo not given in full)
inactive: dose: 0.13 mg/kg/injection, schedule: Q01DX005 (ip), vehicle: water 100 % of control | dose: 0.13 mg/kg/injection, schedule: Q01DX009 (ip), vehicle: water 104 % of control | dose: 0.25 mg/kg/injection, schedule: Q01DX005 (ip), vehicle: water 105 % of control | dose: 0.25 mg/kg/injection, schedule: Q01DX009 (ip), vehicle: water 101 % of control | dose: 0.25 mg/kg/injection, schedule: Q04DX002 (ip), vehicle: water 98 % of control | dose: 0.25 mg/kg/injection, schedule: Q04DX003 (ip), vehicle: water 98 % of control | dose: 0.5 mg/kg/injection, schedule: Q04DX002 (ip), vehicle: water 95 % of control | dose: 0.5 mg/kg/injection, schedule: Q04DX003 (ip), vehicle: water 106 % of control

CCc1ccc(NC(=O)c2ccco2)cc1
inactive: dose: 25.0 mg/kg/injection, schedule: Q01DX009 (ip), vehicle: Klucel (hydroxypropylcellulose) (HPC) 98 % of control | dose: 50.0 mg/kg/injection, schedule: Q01DX009 (ip), vehicle: Klucel (hydroxypropylcellulose) (HPC) 96 % of control | dose: 100.0 mg/kg/injection, schedule: Q01DX009 (ip), vehicle: Klucel (hydroxypropylcellulose) (HPC) 98 % of control

O=C1c2ccccc2C(=O)N1CC(O)CCl (stereo not given)
inactive: dose: 50.0 mg/kg/injection, schedule: Q01DX009 (ip), vehicle: saline with Tween-80 93 % of control | dose: 50.0 mg/kg/injection, schedule: Q04DX003 (ip), vehicle: saline with Tween-80 91 % of control | [12] 93 % of control | [7] 102 % of control | [13] 90 % of control | [8] 96 % of control

OCC(O)C(O)C(O)C1SCCS1 (stereo not given)
inactive: [9] 103 % of control | [10] 106 % of control | [11] 104 % of control

CC12OC3(C)C4C(=O)OC1C1(C)OC4(C)C3C(=O)OC21
inactive: [12] 102 % of control | [13] 101 % of control | dose: 400.0 mg/kg/injection, schedule: Q01DX009 (ip), vehicle: saline with Tween-80 98 % of control

CCCNC(=O)Nc1ccccc1OC
inactive: dose: 100.0 mg/kg/injection, schedule: Q04DX002 (ip), vehicle: Klucel (hydroxypropylcellulose) (HPC) 97 % of control | dose: 200.0 mg/kg/injection, schedule: Q04DX002 (ip), vehicle: Klucel (hydroxypropylcellulose) (HPC) 87 % of control | dose: 400.0 mg/kg/injection, schedule: Q04DX002 (ip), vehicle: Klucel (hydroxypropylcellulose) (HPC) 94 % of control

O=C1C=C(c2ccccc2)S(=O)(=O)C(c2ccccc2)=C1
inactive: dose: 37.5 mg/kg/injection, schedule: Q04DX002 (ip), vehicle: Klucel (hydroxypropylcellulose) (HPC) 97 % of control | dose: 75.0 mg/kg/injection, schedule: Q01DX001 (ip), vehicle: carboxymethylcellulose (CMC) 124 % of control | dose: 75.0 mg/kg/injection, schedule: Q04DX002 (ip), vehicle: Klucel (hydroxypropylcellulose) (HPC) 108 % of control | dose: 150.0 mg/kg/injection, schedule: Q04DX002 (ip), vehicle: Klucel (hydroxypropylcellulose) (HPC) 101 % of control

COc1cc2c(c(OC)c1OC)-c1ccc(N)c(=O)cc1[C@@H](NC(C)=O)CC2
inactive: dose: 0.5 mg/kg/injection, schedule: Q01DX015 (ip), vehicle: saline 116 % of control | dose: 1.0 mg/kg/injection, schedule: Q01DX015 (ip), vehicle: saline 118 % of control | dose: 2.0 mg/kg/injection, schedule: Q01DX001 (ip), vehicle: saline 112 % of control | dose: 2.0 mg/kg/injection, schedule: Q01DX015 (ip), vehicle: saline 92 % of control | dose: 4.0 mg/kg/injection, schedule: Q01DX001 (ip), vehicle: saline 100 % of control | dose: 4.0 mg/kg/injection, schedule: Q01DX015 (ip), vehicle: saline 116 % of control | dose: 8.0 mg/kg/injection, schedule: Q01DX001 (ip), vehicle: saline 98 % of control | dose: 16.0 mg/kg/injection, schedule: Q01DX001 (ip), vehicle: saline 104 % of control
